The target in test [1] is T1, full length human TREX1 (Homo sapiens, UniProt Q9NSU2).
T1 construct: N-terminally His-Tev tagged full length human TREX1; made in house; host or cells: E. coli
T1 sequence (Q9NSU2 1-314): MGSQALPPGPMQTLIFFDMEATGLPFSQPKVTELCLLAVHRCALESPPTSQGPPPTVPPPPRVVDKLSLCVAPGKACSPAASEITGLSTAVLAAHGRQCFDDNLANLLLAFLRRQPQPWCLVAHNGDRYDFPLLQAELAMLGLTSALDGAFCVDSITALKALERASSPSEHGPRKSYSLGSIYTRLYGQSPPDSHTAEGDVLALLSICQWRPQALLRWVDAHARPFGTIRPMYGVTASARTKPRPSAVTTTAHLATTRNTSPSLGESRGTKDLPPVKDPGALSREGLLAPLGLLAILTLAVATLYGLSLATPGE
The experiment in a line: hTREX1 Biochemical Assay (fluorescence, dsDNA substrate degradation). The note with it: biochemical, read-out: hTREX1 IC50. The procedure, abridged:
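Fluorescence rises as enzyme degrades a quenched TEX615-labelled dsDNA substrate (60 nM) in 50 mM Tris, 150 mM NaCl, 5 mM MgCl2, pH 7.4. Full-length His-Tev-tagged human TREX1, 4 pM, sits with compound 4 hours at 25° C before substrate; reaction 18 hours, stopped with EDTA.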

Test [2] has as its target T2, human TREX2 (residues M44-A279) (Homo sapiens, UniProt Q9BQ50).
T2 construct: human TREX2 (residues M44-A279, expressed in E. coli); made in house; host or cells: E. coli
T2 sequence (Q9BQ50 44-279 isoform Q9BQ50-1): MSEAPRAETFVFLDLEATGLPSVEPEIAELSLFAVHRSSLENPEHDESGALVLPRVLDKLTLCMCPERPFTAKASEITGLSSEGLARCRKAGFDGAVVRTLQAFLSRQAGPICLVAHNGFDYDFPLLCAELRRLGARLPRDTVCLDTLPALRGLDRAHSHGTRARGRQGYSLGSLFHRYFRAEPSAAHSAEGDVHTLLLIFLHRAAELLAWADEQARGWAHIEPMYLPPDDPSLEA
Description: hTREX2 Biochemical Assay (fluorescence, dsDNA substrate degradation). The note with it: biochemical selectivity for hTREX1 vs hTREX2. The protocol:
Degradation of the dsDNA liberates free fluorophore to produce a fluorescent signal. Specifically, 7.5 μL of N-terminally His-Tev tagged human TREX2 (residues M44-A279, expressed in E. coli and purified in house) in reaction buffer (50 mM Tris, 150 mM NaCl, 2 mM DTT, 0.1 mg/mL BSA, 0.01% (w/v) Tween-20, 5 mM MgCl2, pH 7.4) was added to a 384-well Black ProxiPlate Plus (PerkinElmer) which already contained compound (150 nL) at varying concentrations as a 10 point dose-response in DMSO. The plate was incubated at 25° C. for 4 hours. Reactions were initiated by adding 7.5 μL of dsDNA substrate (Strand A: 5′ TEX615/GCT AGG CAG 3′; Strand B: 5′ CTG CCT AGC/IAbRQSp (IDT)) in reaction buffer. Final concentrations were 50 pM TREX2, 60 nM dsDNA substrate in reaction buffer with 1.0% DMSO (v/v). After 18 hours at 25° C., reactions were quenched by the addition of 2 μL of 500 mM EDTA. Final concentrations in the quenched reaction mixture were 44 pM TREX2, 53 nM DNA and 59 mM EDTA in a volume of 17 μL. After a 5-minute incubation at room temperature, plates were read in an EnVision plate reader (PerkinElmer) measuring fluorescence at 615 nm following excitation w/570 nm light.

Test [3] has as its target T3, full length mouse TREX1 (Mus musculus, UniProt Q91XB0).
T3 construct: N-terminally His-Tev tagged full length mouse TREX1; made in house; host or cells: E. coli
T3 sequence (Q91XB0 1-314): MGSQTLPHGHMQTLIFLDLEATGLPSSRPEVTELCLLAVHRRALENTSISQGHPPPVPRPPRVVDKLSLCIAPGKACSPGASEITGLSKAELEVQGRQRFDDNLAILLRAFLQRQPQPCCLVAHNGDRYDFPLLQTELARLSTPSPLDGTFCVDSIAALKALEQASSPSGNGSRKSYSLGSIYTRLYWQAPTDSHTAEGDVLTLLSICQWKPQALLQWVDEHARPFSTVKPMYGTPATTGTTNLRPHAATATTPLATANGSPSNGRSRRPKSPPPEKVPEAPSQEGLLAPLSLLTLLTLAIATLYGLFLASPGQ
The experiment in a line: mTREX1 Biochemical Assay (fluorescence, dsDNA substrate degradation). The settings on record: biochemical, read-out: mTREX1 IC50. The gist of the method: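 Reaction run 18 h at 25° C. with 60 nM TEX615/quencher-labelled dsDNA and 6 pM mouse TREX1 in Tris buffer (pH 7.4, 5 mM MgCl2, 1.0% DMSO), enzyme having sat 4 h with compound across 10 concentrations. EDTA quench; substrate degradation measured as fluorescence increase.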

Where only a bound is given, the exact number is not on record here.

As a reminder, the IC50 is the concentration that inhibits the measured activity by half. Take `CC(c1nc(C(=O)Nc2cnoc2)c(O)c(=O)n1C)C(c1ccccc1C#N)c1ccnn1C` (single isomer, unassigned) [Example 1 D1E2]: the IC50 in test [1] and in test [3] was > 10 nM throughout. Moreover, in test [2], the “hTREX1 vs hTREX2 selectivity” value is listed as “A (A = <25 fold selective for hTREX1)”.
In the case of `CC(c1nc(C(=O)Nc2cnoc2)c(O)c(=O)n1C)C(c1ccccc1C#N)c1ccnn1C` (single isomer, unassigned) [Example 1 D2E2], the IC50 in test [1] and in test [3] was > 10 nM in each case. In test [2], the “hTREX1 vs hTREX2 selectivity” value is listed as “B (B = 25 to 50-fold selective for hTREX1)”.
Take `Cc1ccc(C(c2ccccc2C#N)C(C)c2nc(C(=O)Nc3cnoc3)c(O)c(=O)n2C)cn1` (single isomer, unassigned) [Example 5 D2E1]: the IC50 in test [1] and in test [3] was > 10 nM each time. Also, the “hTREX1 vs hTREX2 selectivity” value in test [2] is “B (B = 25 to 50-fold selective for hTREX1)”.
Regarding `CC(c1nc(C(=O)Nc2cnoc2)c(O)c(=O)n1C)C(c1cnn(C)c1)c1cccnc1C#N` (single isomer, unassigned) [Example 7 D2E2], the IC50 in test [1] and in test [3] was > 10 nM throughout. Moreover, in test [2], the “hTREX1 vs hTREX2 selectivity” value is on record as “B (B = 25 to 50-fold selective for hTREX1)”.
`CC(c1nc(C(=O)Nc2cnoc2)c(O)c(=O)n1C)C(c1cnn(C)c1)c1ccc(C(=O)N(C)C)cc1C#N` (single isomer, unassigned) [Example 11 D1E2]: the IC50 in test [1] and in test [3] was > 10 nM throughout. The “hTREX1 vs hTREX2 selectivity” value in test [2] is given as “B (B = 25 to 50-fold selective for hTREX1)”.
As for `CC(c1nc(C(=O)Nc2cnoc2)c(O)c(=O)n1C)C(c1cn[nH]c1)c1ccccc1C#N` (single isomer, unassigned) [Example 12 D1E2], the IC50 in test [1] and in test [3] was > 10 nM each time. The “hTREX1 vs hTREX2 selectivity” value in test [2] is on record as “B (B = 25 to 50-fold selective for hTREX1)”.
As for `CCn1cc(C(c2cc(F)c(F)cc2Cl)C(C)c2nc(C(=O)Nc3cnoc3)c(O)c(=O)n2C)cn1` (single isomer, unassigned) [Example 72 D2E1], the IC50 in test [1] and in test [3] was > 10 nM each time.
For the molecule `CCn1cc(C(c2cc(F)c(F)cc2Cl)C(C)c2nc(C(=O)Nc3cnoc3)c(O)c(=O)n2C)cn1` (single isomer, unassigned) [Example 72 D2E2], the IC50 in test [1] and in test [3] was > 10 nM in each case.
In the case of `COCCn1cc(C(c2cc(F)c(F)cc2Cl)C(C)c2nc(C(=O)Nc3cnoc3)c(O)c(=O)n2C)cn1` (single isomer, unassigned) [Example 73 D1E2], the IC50 in test [1] and in test [3] was > 10 nM throughout.
For `COCCn1cc(C(c2cc(F)c(F)cc2Cl)C(C)c2nc(C(=O)Nc3cnoc3)c(O)c(=O)n2C)cn1` (single isomer, unassigned) [Example 73 D2E1], the IC50 in test [1] and in test [3] was > 10 nM in each case.
On to `COCCn1cc(C(c2cc(F)c(F)cc2Cl)C(C)c2nc(C(=O)Nc3cnoc3)c(O)c(=O)n2C)cn1` (single isomer, unassigned) [Example 73 D2E2], for which the IC50 in test [1] and in test [3] was > 10 nM in each case.
Regarding `Cc1nn(C)c(C)c1C(c1ccccc1C#N)C(C)c1nc(C(=O)Nc2cnoc2)c(O)c(=O)n1C` (single isomer, unassigned) [Example 78 D2E2], the IC50 in test [1] and in test [3] was > 10 nM in each case.
Turning to `CC(c1nc(C(=O)Nc2cnoc2)c(O)c(=O)n1C)C(c1cnn(C)c1)c1ccc(O)cc1C#N` (single isomer, unassigned) [Example 80 D2E1], the IC50 in test [1] and in test [3] was > 10 nM in each case.
Turning to `Cc1cnn(C)c1C(c1ccccc1C#N)C(C)c1nc(C(=O)Nc2cnoc2)c(O)c(=O)n1C` (single isomer, unassigned) [Example 84 D1E2], the IC50 in test [1] and in test [3] was > 10 nM throughout.
As for `CC(c1nc(C(=O)Nc2cnoc2)c(O)c(=O)n1C)C(c1cnn(C2COC2)c1)c1ccccc1C#N` (single isomer, unassigned) [Example 106 D2E2], the IC50 in test [1] and in test [3] was > 10 nM each time.
For the molecule `Cc1cc(C(c2cc(F)ccc2C#N)C(C)c2nc(C(=O)Nc3cnoc3)c(O)c(=O)n2C)n(C)n1` (single isomer, unassigned) [Example 111 D1E1], the IC50 in test [1] and in test [3] was > 10 nM throughout.
For `Cc1cc(C(c2cc(F)ccc2Cl)C(C)c2nc(C(=O)Nc3cnoc3)c(O)c(=O)n2C)n(C)n1` (single isomer, unassigned) [Example 113 D2E2], the half-inhibitory concentration (IC50) in test [1] and in test [3] was > 10 nM throughout.
As for `Cc1cnc(C(c2cc(F)ccc2C#N)C(C)c2nc(C(=O)Nc3cnoc3)c(O)c(=O)n2C)cn1` (single isomer, unassigned) [Example 115 D2E1], the IC50 in test [1] and in test [3] was > 10 nM throughout.
Regarding `Cc1cnc(C(c2ccccc2Cl)C(C)c2nc(C(=O)Nc3cnoc3)c(O)c(=O)n2C)cn1` (single isomer, unassigned) [Example 116 D2E2], the IC50 in test [1] and in test [3] was > 10 nM throughout.
In the case of `Cc1cnc(C)c(C(c2ccccc2Cl)C(C)c2nc(C(=O)Nc3cnoc3)c(O)c(=O)n2C)n1` (single isomer, unassigned) [Example 120 D2E1], the IC50 in test [1] and in test [3] was > 10 nM each time.
As to `Cc1cnc(C)c(C(c2cc(F)ccc2Cl)C(C)c2nc(C(=O)Nc3cnoc3)c(O)c(=O)n2C)n1` (single isomer, unassigned) [Example 121 D2E2], the IC50 in test [1] and in test [3] was > 10 nM throughout.
For `Cc1nc(C)c(C(c2ccccc2C#N)C(C)c2nc(C(=O)Nc3cnoc3)c(O)c(=O)n2C)nc1C` (single isomer, unassigned) [Example 122 D2E2], the IC50 in test [1] and in test [3] was > 10 nM throughout.
For the molecule `Cc1ncc(C(c2ccccc2Cl)C(C)c2nc(C(=O)Nc3cnoc3)c(O)c(=O)n2C)nc1C` (single isomer, unassigned) [Example 125 D2E2], the IC50 in test [1] and in test [3] was > 10 nM throughout.
`CC(c1nc(C(=O)Nc2cnoc2)c(O)c(=O)n1C)C(c1ccccc1C#N)c1nnnn1C` (single isomer, unassigned) [Example 131 D1E2]: the IC50 in test [1] and in test [3] was > 10 nM in each case.
For the molecule `CC(c1nc(C(=O)Nc2cnoc2)c(O)c(=O)n1C)C(c1ccccc1C#N)c1nnnn1C` (single isomer, unassigned) [Example 131 D2E2], the IC50 in test [1] and in test [3] was > 10 nM in each case.
Consider `CC(c1nc(C(=O)Nc2cnoc2)c(O)c(=O)n1C)C(c1cnn(C(F)(F)F)c1)c1ccccc1C#N` (single isomer, unassigned) [Example 151 D2E2], for which the IC50 in test [1] and in test [3] was > 10 nM in each case.
Take `CC(=O)N(C)c1nn(C)cc1C(c1ccccc1C#N)C(C)c1nc(C(=O)Nc2cnoc2)c(O)c(=O)n1C` (single isomer, unassigned) [Example 153 D1E1]: the IC50 in test [1] and in test [3] was > 10 nM in each case.
